Experiments:
PSMA = molecular target: T1, PSMA (Homo sapiens, UniProt Q04609); test: Competitive binding assay (IC50) on LNCaP cells with ([125I]I-BA)KuE as radioligand; conditions: ([125I]I-BA)KuE 0.2 nM, HBSS (1% BSA), 4 °C, 1 h
T1 construct: host or cells: LNCaP human prostate cancer cells
Protocol: (§1) PSMA-positive LNCaP cells (300265; Cell Lines Service, Eppelheim, Germany) were cultivated in Dulbecco’s modified Eagle medium/Nutrition Mixture F-12 with GlutaMAX (1/1, DMEM-F12, Thermo Fisher Scientific, Darmstadt, Germany) supplemented with 10% fetal bovine serum (Merck KGaA, Darmstadt, Germany) and kept at 37 °C in a humidified 5% CO2 atmosphere. One day (24 ± 2 h) prior to all in vitro experiments, the cultivated LNCaP cells were harvested using a mixture of trypsin/ethylenediamine-tetraacetic acid (0.05%/0.02%) in PBS (Thermo Fisher Scientific, Darmstadt, Germany) and centrifuged at 1300 rpm (ca. 190×g) for 3 min at room temperature (Heraeus Megafuge 16, Thermo Fisher Scientific, Darmstadt, Germany). After centrifugation, the supernatant was disposed and the cell pellet was resuspended in culture medium. Cells were counted with a Neubauer hemocytometer (Paul Marienfeld GmbH & Co. KG, Lauda-Königshofen, Germany) and seeded in 24-well plates.
(§2) Detailed information on affinity and internalization experiments is provided in the supporting information. […] IC50 values of (^natI-BA)KuE were determined on the same day for monitoring assay performance and to identify abnormal deviations in uptake and/or affinity. […] Data were corrected for non-specific binding and normalized to the specific internalization observed for the radioiodinated reference compound (n = 3).
The culture medium was removed and the cells were washed with 500 µL of Hank’s balanced salt solution (HBSS) (Merck KGaA, Darmstadt, Germany), containing 1% bovine serum albumin (BSA) (Merck KGaA, Darmstadt, Germany). Afterwards, 200 µL of HBSS (1% BSA) were added to each well and equilibrated on ice (4 °C) for 15 min. […] Experiments were carried out in triplicates for each concentration. The final concentrations of unlabeled ligand ranged from 10^-11 - 10^-5 M and the final radioligand concentration was 0.2 nM in all binding assays. The cells were incubated for one hour at 4 °C. Incubation was terminated by removal of the incubation medium. The cells were washed with 250 µL of HBSS (1% BSA) and the wash medium was combined with the respective supernatant. This fraction represents the amount of free radioligand. The cells were lysed by addition of 250 µL of 1 M aqueous NaOH. The lysate of each well was transferred to the respective vial as well as 250 µL of 1 M NaOH used for rinsing the well. Quantification of the amount of free and bound activity was performed in a γ-counter. The corresponding IC50 values were calculated using the GraphPad PRISM7 software.

[1] = tested on: LNCaP tumor xenograft-bearing CB17-SCID mice; format: in vivo, mouse; conditions: 24 h p.i.
Protocol: All animal experiments were conducted in accordance with general animal welfare regulations in Germany (German animal protection act, as amended on 18.05.2018, Art. 141 G v. 29.3.2017 I 626, approval no. 55.2–1-54-2532-71-13) and the institutional guidelines for the care and use of animals. To establish tumor xenografts, LNCaP cells (approx. 10^7 cells) were suspended in 200 μL of a 1/1 mixture (v/v) of DMEM F-12 and Matrigel (BD Biosciences, Heidelberg, Germany) and inoculated subcutaneously onto the right shoulder of 6–8 weeks old CB17-SCID mice (Charles River Laboratories, Sulzfeld, Germany). Mice were used for experiments when tumor size reached 5–10 mm in diameter (3–6 weeks after inoculation).
(§3) Approximately 2–10 MBq (0.20 nmol) of the ^177Lu-labeled PSMA inhibitors were injected into the tail vein of LNCaP tumor xenograft-bearing male CB17-SCID mice (n = 3 to 5). They were sacrificed by CO2 asphyxiation and cervical dislocation either 1 h or 24 h post injection (p.i.) (n = 3 for [^177Lu]Lu-5, -6 & -7 (proinhibitor compounds I-III), n = 4 for [^177Lu]Lu-10 (alkyne), n = 5 for [^177Lu]Lu-3 (carbamate I) and n = 5 for [^177Lu]Lu-11 (tetrazole)). Selected organs were removed, weighed and organ activities measured in a γ-counter.
as §3, with “2 - 10” for “2–10”, “(alkyne) and” for “(alkyne),”

LNCaP cells = test: Internalization study of 177Lu-labeled ligands in LNCaP cells, normalized to ([125I]I-BA)KuE; format: cell-based, human; conditions: 1 h, 37 °C, 1.0 nM 177Lu-compound, normalized to ([125I]I-BA)KuE
Protocol: as §1, §2
The culture medium was removed and the cells were washed with 500 µL of DMEM-F12 containing 5% BSA. Afterwards, 200 µL of DMEM-F12 (5% BSA) were added to each well and left to equilibrate at 37 °C for 15 min. 25 µL of DMEM-F12 (5% BSA) were added to each well, followed by the addition of 25 µL of the respective ^177Lu-labeled ligand (10.0 nM in DMEM-F12 (5% BSA)). For blocking PSMA-specific binding and uptake, 25 µL of 2-(phosphonomethyl)pentane-1,5-dioic acid (2-PMPA) (100 µM in DMEM (5% BSA)) instead of DMEM-F12 (5% BSA) were added prior to radiotracer addition. […] Each experiment (control and blockade) was performed in triplicate. […] Incubation was terminated by placing the plate on ice (4 °C, 1 min) and removal of the incubation medium. The cells were washed with 250 µL of ice-cold PBS and the wash medium was combined with the respective supernatant. This fraction represents the amount of free radioligand. 250 µL of ice-cold 2-PMPA (10 µM in PBS) were added and the cells were incubated for 10 min at 4 °C. Afterwards, the cells were rinsed again with 250 µL of ice-cold PBS and the wash medium was combined with the respective supernatant. This fraction represents the amount of cell surface-bound ligand. In the last step, the cells were lysed by addition of 250 µL of 1 M aqueous NaOH. After 20 min, the lysate of each well was transferred to the respective vial as well as 250 µL of 1 M NaOH used for rinsing the well. This fraction represents the amount of internalized radioligand. Quantification of the amount of free, cell surface-bound and internalized activity was performed in a γ-counter.

T1 sequence (Q04609 whole entry): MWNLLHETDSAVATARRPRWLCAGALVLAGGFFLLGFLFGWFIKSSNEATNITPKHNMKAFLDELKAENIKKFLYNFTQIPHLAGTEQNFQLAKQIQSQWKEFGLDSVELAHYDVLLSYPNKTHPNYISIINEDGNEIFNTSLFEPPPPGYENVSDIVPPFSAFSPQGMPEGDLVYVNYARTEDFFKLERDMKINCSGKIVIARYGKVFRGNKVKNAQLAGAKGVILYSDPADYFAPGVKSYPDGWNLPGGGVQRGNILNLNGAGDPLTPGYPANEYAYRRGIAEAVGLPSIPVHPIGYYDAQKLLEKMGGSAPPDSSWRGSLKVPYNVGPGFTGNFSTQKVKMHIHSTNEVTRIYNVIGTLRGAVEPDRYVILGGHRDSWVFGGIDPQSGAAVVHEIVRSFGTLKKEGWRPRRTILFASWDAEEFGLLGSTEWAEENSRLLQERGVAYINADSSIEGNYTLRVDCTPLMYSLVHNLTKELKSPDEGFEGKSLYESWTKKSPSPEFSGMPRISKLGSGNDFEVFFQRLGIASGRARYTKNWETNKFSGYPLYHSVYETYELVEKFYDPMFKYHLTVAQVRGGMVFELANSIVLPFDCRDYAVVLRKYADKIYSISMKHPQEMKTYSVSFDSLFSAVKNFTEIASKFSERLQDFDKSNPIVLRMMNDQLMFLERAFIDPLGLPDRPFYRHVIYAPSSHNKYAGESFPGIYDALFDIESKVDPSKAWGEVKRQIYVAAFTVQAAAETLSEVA

C#CC[C@H](NC(=O)N[C@@H](CCC(=O)N[C@H](CCCNC(=O)CCC(=O)NCCCC[C@@H](NC(=O)[C@@H](CNC(=O)c1ccc([Si](F)(C(C)(C)C)C(C)(C)C)cc1)NC(=O)CN1CCN(CC(=O)[O-])CCN(CC(=O)[O-])CCN(CC(=O)[O-])CC1)C(=O)O)C(=O)O)C(=O)O)C(=O)O.[Lu+3] [^natLu/[^177Lu]Lu-10]
IC50 (PSMA): 138 ± 53 nM | Biodistribution Adrenals [1]: 0.02 ± 0.02 % ID/g | Biodistribution Blood [1]: 0.01 ± 0.01 % ID/g | Biodistribution Bone [1]: 0.03 ± 0.01 % ID/g | Biodistribution Heart [1]: 0.01 ± 0.00 % ID/g | Biodistribution Intestine [1]: 0.32 ± 0.29 % ID/g | Biodistribution Kidneys [1]: 1.29 ± 0.28 % ID/g | Biodistribution Liver [1]: 0.09 ± 0.04 % ID/g | Biodistribution Lung [1]: 0.03 ± 0.03 % ID/g | Biodistribution Pancreas [1]: 0.01 ± 0.01 % ID/g | Biodistribution Parotid gland [1]: 0.02 ± 0.00 % ID/g | Biodistribution Spleen [1]: 0.04 ± 0.00 % ID/g | Biodistribution Stomach [1]: 0.12 ± 0.11 % ID/g | Biodistribution Submandibular gland [1]: 0.02 ± 0.00 % ID/g | Biodistribution Tumor [1]: 0.10 ± 0.03 % ID/g | Ratio Tumor-to-blood [1]: 26.8 ± 16.9 | Ratio Tumor-to-kidney [1]: 0.08 ± 0.01 | Ratio Tumor-to-liver [1]: 1.46 ± 0.88 | Ratio Tumor-to-muscle [1]: 27.7 ±10.9 | Ratio Tumor-to-parotid gland [1]: 6.38 ± 3.06 | Ratio Tumor-to-submandibular gland [1]: 6.11 ± 1.78 | factor by which tumor-to-submandibular gland and tumor-to-parotid gland ratios are lower than for [177Lu]Lu-1 [1]: 45 | %Internalization compared to the reference (LNCaP cells): 1 h: 1.2 ± 0.4% | %Internalization compared to the reference (LNCaP cells; listed as [^177Lu]Lu-10): 1.2 ± 0.4%

CCCCC[C@H](NC(=O)N[C@@H](CCC(=O)N[C@H](CCCNC(=O)CCC(=O)NCCCC[C@@H](NC(=O)[C@@H](CNC(=O)c1ccc([Si](F)(C(C)(C)C)C(C)(C)C)cc1)NC(=O)CN1CCN(CC(=O)[O-])CCN(CC(=O)[O-])CCN(CC(=O)[O-])CC1)C(=O)O)C(=O)O)C(=O)O)C(=O)O.[Lu+3] [^natLu-8]
IC50 (PSMA): > 2000 nM

From PMC7910394, “Design of PSMA ligands with modifications at the inhibitor part: an approach to reduce the salivary gland uptake of radiolabeled PSMA inhibitors?” (EJNMMI Radiopharmacy and Chemistry, 2021)
